Several values for one entry are separate records, joined by “and”; a condition that tells them apart may be missing. Equal entries are not always repeated.

Experiment [1] deals with phospho-MEK in A549 cells. Description: Cell-based pMEK (pMEK:tMEK, CRAF bypass) in A549 cells. The settings on record: 2 h, pMEK to total MEK normalized to DMSO control. The procedure:
(§1) Materials and Methods: A549 or A375 cells were seeded in 6-well plates at an appropriate seeding density on day 0. On day 2 or 3, after checking the health and confluency of cells, the media was aspirated and replaced with 1 mL media containing a predetermined concentration of compound and incubated for 2 hours. After 2 hours, the media was aspirated, and the cells washed 2 times with cold PBS. Cells were lysed on ice, with 50 uL 1×CST lysis buffer +1 mM PMSF for 5 minutes. After 5 minutes, cells were removed using a scraper and transferred to cold 1.5 mL tubes, and centrifuged for 10 min, 4° C., 14,000×g. Supernatant was gently removed and snap frozen in liquid nitrogen. Protein concentration of the lysate was determined using Bradford Reagent (analyzed using SpectraMax M2E) and diluted to 1 mg/mL or pERK or 1.5 mg/mL for pMEK analysis. […] All dilutions were in Milk-free antibody diluent.
(§2) A549 or […] cells were treated in duplicate for two hours with compounds at varying concentrations. After two hours, the cells were lysed, snap frozen, and stored at −80° C. After storage, the lysate was quantified with the Bradford assay. Before the lysates were prepared to run on the Jess, the lysates were diluted to 1 mg/mL for pERK analysis and 1.5 mg/mL pMEK analysis using quantitative Western blotting. ERK and MEK phosphorylation levels were estimated by taking the ratio of phospho-protein to total protein and normalizing to the DMSO control.
as §2

The test system of experiment [2] is phospho-ERK in A549 (KRAS G12S) cells. Description: Cell-based pERK (pERK:tERK) in A549 cells. Set-up: A549-pERK 10 uM, 2 h: unit not given here. The note with it: for A549-pERK (10 nM, 2 h): phospho- to total protein ratio normalized to DMSO control (Table 9); for pERK:tERK (10 nM 2 h A549): Phospho-ERK Screen in A549 (KRAS G12S), head 10 nM 2 h, title 10 μM for 2 hours; for A549-pERK 10 uM, 2 h: phospho- to total protein ratio normalized to DMSO control. The procedure:
Media components, reagents and buffers for Western Blot: All cell culture media components were obtained from ThermoFisher Scientific. […] Laemmli sample loading 4× buffer (ThermoFisher Scientific, Cat No. NP0007). MOPS/SDS electrophoresis running buffer (GenScript, Cat No. M00138).
Subculture conditions: Adherent cells were grown to approximately 90% confluency, culture medium was aspirated and the cell layer was rinsed with PBS. […] Eight mL media was added, cells were spun down at 1000×g for 5 minutes. Cell pellet was re-suspended in 10 mL media and an appropriate volume was inoculated into a new culture flask.
Compound (drug) treatment: Cells were plated in a 6-well plate at a density of 250,000-300,000 cells/well in 3 mL media and incubated 37° C. in a humidified, 5% CO2 incubator. […] These solutions were added to the cells (3 uL/well), mixed by swirling the plate, and incubated at 37° C. in a humidified, 5% CO2 incubator for 2 hours.
Cell lysis and protein estimation: Cells were washed with PBS, and scraped in 50 μL of lysis buffer containing protease and phosphatase inhibitors. Cell lysates were stored at −20° C. Cell lysates were thawed and spun at 12,000 rpm for one minute, 3 ul of the supernatant was added to 500 μL of Coomassie blue reagent following by 500 μL of water. […] Protein standards were used (0-20 mg/mL) to calculate protein concentrations of test samples.
All samples were heated at 95° C. for 5 minutes, cooled to room temperature and spun down. […] After the run, gel was removed and protein transfer was done using iBlot for 7 minutes, as per manufacturer's recommendations. After the transfer, nitrocellulose membrane was incubated on a shaker in 5 mL of blocking buffer at room temperature for 1 hr. The blot was then incubated overnight on a shaker in 5 ml of blocking buffer containing 0.2% Tween-20 and primary antibody, at room temperature. Anti-phospho-STAT3 antibody was used at a dilution of 1:500, the other 3 primary antibodies were used at a dilution of 1:1000.
Next day, the blot was washed 3 times for 10 min each with 10 mL of TBST followed by incubation on a shaker in 5 ml of blocking buffer containing 0.2% Tween-20 and 0.5 ul of the IRDye labeled secondary antibodies, diluted 1:10000, at room temperature for 1 hr. The blot was then washed 3 times for 10 min each with 10 mL of TBST and dried between sheets of paper towels. Imaging was done using LICOR's Odyssey imaging system, quantitation was done using their software, Image Studio version 3.1.
as §1
They were grown in T75 flasks in DMEM containing 10% FBS and Pen-Strep. at 37° C. in a humidified, 5% CO2 incubator. The adherent cells were grown to about 90% confluency, culture medium was aspirated, and the cell layer was rinsed with PBS. […] Eight mL media was added, cells were spun down at 1000 g for 5 minutes. Cell pellet was re-suspended in 10 mL media and an appropriate volume was inoculated into a new culture flask. Cells were plated in a 6-well plate at a density of 250,000-300,000 cells/well in 3 mL media and incubated 37° C. in a humidified, 5% CO2 incubator.

Regarding `CN(C)C(=O)Oc1ccc2c(CN3CCNCC3)c(Cc3ccnc(NS(=O)(=O)C4CC4)c3F)c(=O)oc2c1` [Compound 150], in experiment [1], the “A549-CRAF BP 100 nM, 2 h” value amounted to 90.2. For the same compound, the “A549-pERK (10 nM, 2 h)” value in experiment [2] stood at 47.4.
The matching figures for `CNS(=O)(=O)Nc1cccc(Cc2c(CNc3cncs3)c3ccc(OC(=O)N(C)C)cc3oc2=O)c1F` [Compound 91]: 84.2 and 74.6.
In the case of `CNS(=O)(=O)Nc1cccc(Cc2c(CN3CCNCC3)c3cc(Cl)c(OC(=O)N(C)C)cc3oc2=O)c1F` [Compound 21], in experiment [1], the “A549-CRAF BP 100 nM, 2 h” value was 47.9 (mean, n = 2). In addition, the “A549-pERK (10 nM, 2 h)” value in experiment [2] came out at 20.4.
The matching figures for `CNS(=O)(=O)Nc1cccc(Cc2c(CN(C)C3CCC3)c3ccc(OC(=O)N(C)C)cc3oc2=O)c1F` [Compound 86]: 53.2 and 96.4.
For `CCS(=O)(=O)Nc1cccc(Cc2c(CN(C)C)c3cc(Cl)c(OC(=O)N(C)C)cc3oc2=O)c1F` [Compound 132], in that order: 57.8 and 62.6.
As to `Cc1c(Cc2cccc(NS(=O)(=O)C3CCC3)c2F)c(=O)oc2cc(OC(=O)N(C)C)ccc12` [Compound 118], the “A549-CRAF BP 100 nM, 2 h” value in experiment [1] is on record as 39.1 (mean, n = 2). Further, the “A549-pERK (10 nM, 2 h)” value in experiment [2] was 21.1.
For `CNS(=O)(=O)Nc1cccc(Cc2c(CNc3ccsc3)c3ccc(OC(=O)N(C)C)cc3oc2=O)c1F` [Compound 90], in that order: 71 and 72.4.
On to `CNS(=O)(=O)Nc1cccc(Cc2c(CN3CC(N(C)C)C3)c3ccc(OC(=O)N(C)C)cc3oc2=O)c1F` [Compound 154], for which the “A549-pERK (10 nM, 2 h)” value in experiment [2] was found to be 64.
The same measure, in the same setting: to `CNS(=O)(=O)Nc1cccc(Cc2c(CNCc3ccncc3)c3ccc(OC(=O)N(C)C)cc3oc2=O)c1F` [Compound 29] belongs 96; to `CNS(=O)(=O)Nc1cccc(Cc2c(CNc3ccc(OC)nc3)c3ccc(OC(=O)N(C)C)cc3oc2=O)c1F` [Compound 193], 90.7.
Consider `CCN(C)Cc1c(Cc2cccc(NS(=O)(=O)NC)c2F)c(=O)oc2cc(OC(=O)N(C)C)c(F)cc12` [Compound 261, 4-((ethyl(methyl)amino)methyl)-6-fluoro-3-(2-fluoro-3-((N-methylsulfamoyl)amino)benzyl)-2-oxo-2H-chromen-7-yl dimethylcarbamate], for which the “pERK:tERK (10 nM 2 h A549)” value in experiment [2] was 68.
Turning to `CC(C)CS(=O)(=O)Nc1cccc(Cc2c(CN3CCNCC3)c3cc(Cl)c(OC(=O)N(C)C)cc3oc2=O)c1F` [Compound 168], in experiment [2], the “pERK:tERK (10 nM 2 h A549)” value is 50 (n = 2) and 53 (n = 2).
Consider `CNS(=O)(=O)Nc1cccc(Cc2c(CNCC(F)(F)F)c3ccc(OC(=O)N(C)C)cc3oc2=O)c1F` [Compound 75], for which the “A549-CRAF BP 100 nM, 2 h” value in experiment [1] is 66.5.
For `CNS(=O)(=O)Nc1cccc(Cc2c(CNC(=O)c3c[nH]nn3)c3ccc(OC(=O)N(C)C)cc3oc2=O)c1F` [Compound 211], in experiment [2], the “A549-pERK (10 nM, 2 h)” value worked out at 121 and the “A549-pERK 10 uM, 2 h” value came out at 70.75.
For `CNS(=O)(=O)Nc1cccc(Cc2c(CNCCN(C)C)c3ccc(OC(=O)N(C)C)cc3oc2=O)c1F` [Compound 58], the “A549-pERK (10 nM, 2 h)” value in experiment [2] was 98.7 and 108.
On the same count and under the same terms, to `CNS(=O)(=O)Nc1cccc(Cc2c(CNc3ccn[nH]3)c3ccc(OC(=O)N(C)C)cc3oc2=O)c1F` [Compound 31] belongs 66.7.
`CNS(=O)(=O)Nc1cccc(Cc2c(CC(=O)N3CC(OC)C3)c3ccc(OC(=O)N(C)C)cc3oc2=O)c1F` [Compound 216]: in experiment [2], the “A549-pERK (10 nM, 2 h)” value was determined as 89.5 and the “A549-pERK 10 uM, 2 h” value amounted to 4.51.
For the compound `CNC1CN(Cc2c(Cc3cccc(NS(=O)(=O)NC)c3F)c(=O)oc3cc(OC(=O)N(C)C)ccc23)C1` [Compound 164], the “A549-pERK (10 nM, 2 h)” value in experiment [2] worked out at 102.
On the same count and under the same terms, to `C#CCN(C)Cc1c(Cc2cccc(NS(=O)(=O)NC)c2F)c(=O)oc2cc(OC(=O)N(C)C)ccc12` [Compound 76] belongs 62.1.
Still for that read-out and setting: for `CNS(=O)(=O)Nc1cccc(Cc2c(CN3CCN(Cc4ccccc4)CC3)c3ccc(OC(=O)N(C)C)cc3oc2=O)c1F` [Compound 16] the value was 91.6; for `CNS(=O)(=O)Nc1cccc(Cc2c(CN3CC(C)(C)C3)c3ccc(OC(=O)N(C)C)cc3oc2=O)c1F` [Compound 143], 104.
With `CNS(=O)(=O)Nc1cccc(Cc2c(CNC(N)=O)c3ccc(OC(=O)N(C)C)cc3oc2=O)c1F` [Compound 105], the “A549-pERK 10 uM, 2 h” value in experiment [2] is 7.39.
On to `CNS(=O)(=O)Nc1cccc(Cc2c(CNCC3CC3)c3ccc(OC(=O)N(C)C)cc3oc2=O)c1F` [Compound 26], for which the “A549-pERK (10 nM, 2 h)” value in experiment [2] came out at 94.2.
Same read-out and setting: to `CNS(=O)(=O)Nc1cccc(Cc2c(CN3CC(C#N)C3)c3ccc(OC(=O)N(C)C)cc3oc2=O)c1F` [Compound 172] belongs 111; to `CNS(=O)(=O)Nc1cccc(Cc2c(CN3CCN(S(C)(=O)=O)CC3)c3ccc(OC(=O)N(C)C)cc3oc2=O)c1F` [Compound 68], 68.9; to `CCN1CCN(Cc2c(Cc3cccc(NS(=O)(=O)NC)c3F)c(=O)oc3cc(OC(=O)N(C)C)ccc23)CC1=O` [Compound 69], 101.
Take `C#CCNC(=O)CNCc1c(Cc2cccc(NS(=O)(=O)NC)c2F)c(=O)oc2cc(OC(=O)N(C)C)ccc12` [Compound 218]: in experiment [2], the “A549-pERK (10 nM, 2 h)” value came out at 113 and the “A549-pERK 10 uM, 2 h” value was determined as 9.46.
With `CNS(=O)(=O)Nc1cccc(Cc2c(CN3CC(Cl)C3)c3ccc(OC(=O)N(C)C)cc3oc2=O)c1F` [Compound 145], the “A549-pERK (10 nM, 2 h)” value in experiment [2] came to 104.
On the same count and under the same terms, for `CNS(=O)(=O)Nc1cccc(Cc2c(CC(=O)Nc3ccon3)c3ccc(OC(=O)N(C)C)cc3oc2=O)c1F` [Compound 201] the value was 119.
For `CNS(=O)(=O)Nc1cccc(Cc2c(CNCC(=O)N(C)CC#N)c3ccc(OC(=O)N(C)C)cc3oc2=O)c1F` [Compound 217], in experiment [2], the “A549-pERK (10 nM, 2 h)” value was found to be 96.7 and the “A549-pERK 10 uM, 2 h” value is 11.2.
`CNS(=O)(=O)Nc1cccc(Cc2c(CNc3ccccc3)c3ccc(OC(=O)N(C)C)cc3oc2=O)c1F` [Compound 30]: the “A549-pERK (10 nM, 2 h)” value in experiment [2] was 54.3.
Same read-out and setting: for `CNS(=O)(=O)Nc1cccc(Cc2c(CN(C)C)c3ccc(OC(=O)N4CCN(C)CC4)cc3oc2=O)c1F` [Compound 127] the value was 110; for `CNS(=O)(=O)Nc1cccc(Cc2c(CN3CCN(C(C)C)CC3)c3ccc(OC(=O)N(C)C)cc3oc2=O)c1F` [Compound 62], 73.
Consider `CNS(=O)(=O)Nc1cccc(Cc2c(CC(=O)N(C)CC#N)c3ccc(OC(=O)N(C)C)cc3oc2=O)c1F` [Compound 198], for which the “A549-pERK (10 nM, 2 h)” value in experiment [2] was 109.
On the same count and under the same terms, to `CNS(=O)(=O)Nc1cccc(Cc2c(CNCCC(F)(F)F)c3ccc(OC(=O)N(C)C)cc3oc2=O)c1F` [Compound 66] belongs 104.
